Laboratory results: US9226500B2, “Pesticidal compositions and processes related thereto” (Dow AgroSciences LLC, priority 2012, dated 2016)
Blank lines part the entries; values can stand above or below the molecule they belong to.

Tests used:
[1] = tested on: Corn Earworm (Helicoverpa zea); assay: Bioassay on Corn Earworm (CEW), 128-well diet tray assay; format: in vivo; details: Table 3, Assays Results Part 1
Protocol: (§1) Certain molecules disclosed in this document were tested against BAW, CEW and CL using procedures described in the following examples. In the reporting of the results, the “BAW & CEW & CL Rating Table” was used (See Table Section).
Bioassays on CEW (Helicoverpa zea)
Bioassays on CEW were conducted using a 128-well diet tray assay. One to five second instar CEW larvae were placed in each well (3 mL) of the diet tray that had been previously filled with 1 mL of artificial diet to which 50 μg/cm^2 of the test compound (dissolved in 50 μL of 90:10 acetone-water mixture) had been applied (to each of eight wells) and then allowed to dry. Trays were covered with a clear self-adhesive cover, and held at 25° C., 14:10 light-dark for five to seven days. Percent mortality was recorded for the larvae in each well; activity in the eight wells was then averaged. The results are indicated in the table entitled “Table 3: Assay Results Part 1” (See Table Section).

[2] = tested on: Green Peach Aphid (Myzus persicae); assay: Bioassay on Green Peach Aphid (GPA), foliar spray on cabbage seedlings; format: in vivo; details: for pest or weed control at 200 ppm / pest or weed control at 200 µg/mL: Myzus persicae, 72 h, read-out: GPA Rating; for pest or weed control at 200 ppm: corrected % control (Abbott), 200 ppm foliar spray on cabbage seedlings, three days; for pest or weed control at 200 µg/mL: foliar, Table 5, Prophetic Compounds Subsequently Exemplified
Protocol: Certain molecules disclosed in this document were tested against GPA using procedures described in the following example. In the reporting of the results, the “GPA Rating Table” was used (See Table Section). Cabbage seedlings grown in 3-inch pots, with 2-3 small (3-5 cm) true leaves, were used as test substrate. The seedlings were infested with 20-50 GPA (wingless adult and nymph stages) one day prior to chemical application. Four pots with individual seedlings were used for each treatment. Test compounds (2 mg) were dissolved in 2 mL of acetone/MeOH (1:1) solvent, forming stock solutions of 1000 ppm test compound. The stock solutions were diluted 5× with 0.025% Tween 20 in water to obtain the solution at 200 ppm test compound. A hand-held aspirator-type sprayer was used for spraying a solution to both sides of […] leaves until runoff. Reference plants (solvent check) were sprayed with the diluent only containing 20% by volume of acetone/MeOH (1:1) solvent. Treated plants were held in a holding room for three days at approximately 25° C. and ambient relative humidity (RH) prior to grading. Evaluation was conducted by counting the number of live aphids per plant under a microscope. Percent Control was measured by using Abbott's correction formula (W. S. Abbott, “A Method of Computing the Effectiveness of an Insecticide” J. Econ. Entomol. 18 (1925), pp. 265-267) as follows. Corrected % Control=100*(X−Y)/X • where • X=No. of live aphids on solvent check plants and • Y=No. of live aphids on treated plants The results are indicated in the tables entitled “Table 3: Assay Results Part 1” and “Table 4: Assay Results Part 2” (See Table Section).

[3] = tested on: Beet Armyworm (Spodoptera exigua); assay: Bioassay on Beet Armyworm (BAW), 128-well diet tray assay; format: in vivo; details: Spodoptera exigua, 168 h; percent mortality of second instar larvae, 50 μg/cm^2 on artificial diet, five to seven days, 25° C.; read-out: BAW Rating
[4] = tested on: Cabbage Looper (Trichoplusia ni); assay: Bioassay on Cabbage Looper (CL), 128-well diet tray assay; format: in vivo; details: 168 h, percent mortality of second instar larvae, 50 μg/cm^2 on artificial diet, five to seven days, 25° C., read-out: CL Rating
Protocol: as §1
Bioassays on CL (Trichoplusia ni)
Bioassays on CL were conducted using a 128-well diet tray assay. One to five second instar CL larvae were placed in each well (3 mL) of the diet tray that had been previously filled with 1 mL of artificial diet to which 50 μg/cm^2 of the test compound (dissolved in 50 μL of 90:10 acetone-water mixture) had been applied (to each of eight wells) and then allowed to dry. Trays were covered with a clear self-adhesive cover, and held at 25° C., 14:10 light-dark for five to seven days. Percent mortality was recorded for the larvae in each well; activity in the eight wells was then averaged.
“Table 4: Assay Results Part 2” (See Table Section).

[5] = tested on: Beet Armyworm (Spodoptera exigua); assay: Bioassay on Beet Armyworm (BAW), 128-well diet tray assay; format: in vivo; details: Table 5, Performed at 12.5 μg/cm^2, read-out: BAW Rating
[6] = tested on: Cabbage Looper (Trichoplusia ni); assay: Bioassay on Cabbage Looper (CL), 128-well diet tray assay; format: in vivo; details: Table 5, Performed at 12.5 μg/cm^2, read-out: CL Rating

- melting point: 110 to 112 °C
SMILES: NC(=O)c1ccc(/C=C/C(c2cc(Cl)cc(Cl)c2)C(F)(F)F)cc1 (stereo not shown) [AC2]

SMILES: O=C(NCc1ccc(/C=C/C(c2cc(Cl)c(Cl)c(Cl)c2)C(F)(F)F)cc1C(F)(F)F)c1cccnc1 (stereo not shown) [CC23]
- CEW Rating [1]: A (50-100)
- GPA Rating ([2]; Table 3, Assays Results Part 1): B (More than 0-Less than 80)

SMILES: O=C(NCc1ccc(/C=C/C(c2cc(Cl)c(Cl)c(Cl)c2)C(F)(F)F)cc1Cl)Oc1ccccc1Cl (stereo not shown) [CC40]
- CEW Rating [1]: A (50-100)

SMILES: CC(C)(NC(=O)c1ccc(/C=C/C(c2cc(Cl)c(Cl)c(Cl)c2)C(F)(F)F)cc1Br)C(=O)NCC(F)(F)F (stereo not shown) [Compound F1, (E)-2-Bromo-N-(2-methyl-1-oxo-1-((2,2,2-trifluoroethyl)amino)propan-2-yl)-4-(4,4,4-trifluoro-3-(3,4,5-trichlorophenyl)but-1-en-1-yl)benzamide]
- pest or weed control at 50 µg/cm2, 50 µg/cm2 [3]: 50 to 100%
- pest or weed control at 50 µg/cm2, 50 µg/cm2 [4]: 50 to 100%
- pest or weed control at 200 ppm [2]: 0 to 80%

SMILES: C[C@@H](NC(=O)c1ccc(/C=C/[C@H](c2cc(Cl)c(Cl)c(Cl)c2)C(F)(F)F)cc1C(F)(F)F)C(=O)NCC(F)(F)F [Compound F20A, N—((R)-1-Oxo-1-((2,2,2-trifluoroethyl)amino)propan-2-yl)-4-((E)-4,4,4-trifluoro-3-(3,4,5-trichlorophenyl)but-1-en-1-yl)-2-(trifluoromethyl)benzamide]
- pest or weed control at 50 µg/cm2, 50 µg/cm2 [3]: 50 to 100%
- pest or weed control at 50 µg/cm2, 50 µg/cm2 [4]: 50 to 100%
- pest or weed control at 200 ppm [2]: 80 to 100%

SMILES: C[C@@H](NC(=O)c1ccc(/C=C/C(c2cc(Cl)c(Cl)c(Cl)c2)C(F)(F)F)cc1Cl)C(=S)NCC(F)(F)F (stereo partly shown) [Compound F30]
- pest or weed control at 50 µg/cm2, 50 µg/cm2 [3]: 50 to 100%
- pest or weed control at 50 µg/cm2, 50 µg/cm2 [4]: 50 to 100%

SMILES: Cc1cc(/C=C/C(c2cc(Cl)c(Cl)c(Cl)c2)C(F)(F)F)ccc1C(=S)NC(C)(C)C(=S)NCC(F)(F)F (stereo not shown) [Compound F31, (E)-2-Methyl-N-(2-methyl-1-thioxo-1-(2,2,2-trifluoroethylamino)propan-2-yl)-4-(4,4,4-trifluoro-3-(3,4,5-trichlorophenyl)but-1-enyl)benzothioamide]
- pest or weed control at 50 µg/cm2, 50 µg/cm2 [3]: 50 to 100%
- pest or weed control at 50 µg/cm2, 50 µg/cm2 [4]: 50 to 100%

SMILES: C[C@@H](NC(=O)c1ccc(/C=C/C(c2cc(F)cc(Br)c2)C(F)(F)F)cc1Br)C(=O)NCC(F)(F)F (stereo partly shown) [Compound P298]
- pest or weed control at 200 µg/mL [2]: 0 to 80%

SMILES: O=C(CNC(=O)c1ccc(/C=C/C(c2cc(Cl)cc(C(F)(F)F)c2)C(F)(F)F)cc1Br)NCC(F)(F)F (stereo not shown) [Compound P1411]
- pest or weed control at 200 µg/mL [2]: 0 to 80%

SMILES: O=C(CNC(=O)c1ccc(/C=C/C(c2cc(Cl)c(Cl)c(Cl)c2)C(F)(F)F)cc1C(F)(F)F)NCC(F)F (stereo not shown) [Compound P1566]
- pest or weed control at 200 µg/mL [2]: 80 to 100%

SMILES: C[C@@H](NC(=O)c1ccc(/C=C/C(c2cc(Cl)c(Cl)c(Cl)c2)C(F)(F)C(F)(F)F)cc1C(F)(F)F)C(=O)NCC(F)(F)F (stereo partly shown) [Compound P1601]
- pest or weed control at 200 µg/mL [2]: 0 to 80%

SMILES: CCNC(=O)[C@@H](C)NC(=O)c1ccc(/C=C/C(c2cc(Cl)c(Cl)c(Cl)c2)C(F)(F)F)cc1C (stereo partly shown) [Compound P1624]
- pest or weed control at 200 µg/mL [2]: 80 to 100%

SMILES: CC(NC(=O)c1ccc(/C=C/C(c2cc(Cl)c(Cl)c(Cl)c2)C(F)(F)F)cc1Br)C(=O)NCCC(F)(F)F (stereo not shown) [Compound P1631A]
- pest or weed control at 200 µg/mL [2]: 0 to 80%

SMILES: O=C(CNC(=O)c1ccc(/C=C/C(c2cc(Br)cc(Br)c2)C(F)(F)F)cc1Br)NCC(F)(F)F (stereo not shown) [Compound P1969]
- pest or weed control at 12.5 µg/cm2, 12.5 µg/cm2 [5]: 50 to 100%
- pest or weed control at 12.5 µg/cm2, 12.5 µg/cm2 [6]: 50 to 100%
